Patent publication EP0565593B1, “REDUCING PESTICIDAL INTERACTIONS IN CROPS” (priority 1990, dated 1992)
Where two headings read alike, the source gives them in different places.

Assays:
Shattercane (SHCA) = type: in vivo
Velvetleaf (VELE) = assay: Greenhouse test Procedure VI (Examples 59-61; Tables 58-60); type: in vivo, Abutilon theophrasti
From the text: This procedure describes interaction among herbicide, biocide and antidote when the herbicide is incorporated in a soil cover layer and the biocide and the antidote are applied in a soil furrow containing crop seed before emergence of the crop. The soil and seeding depth were described in Procedure IV. A first container was designated as an untreated control, a second container was designated as a herbicide control, a third container was designated as a herbicide + biocide control and a fourth container as a herbicide + biocide + antidote test container. The biocide and antidote were formulated as granules. The biocide was applied to the soil furrows of the third and fourth containers at an application rate of 1.1 mg of active compound per cm of row. The antidote was applied to the soil furrow of the fourth container at an application rate of 0.37 mg of active compound per cm of row. A measured amount of the herbicide dispersed or dissolved in acetone was applied to a measured quantity of soil. The quantity of soil treated with the herbicide was thoroughly mixed to incorporate the herbicide. Samples of this soil were used to cover the seed beds of the second, third and fourth containers. For each test series, the seed bed of the first container was likewise covered by a soil layer not treated with herbicide and without biocide or antidote in the soil furrow.
The containers were then placed on a bench in a greenhouse. Watering was by subirrigation plus overhead irrigation after the plants emerged. All treatments were run in duplicate. Plant response was observed according to Procedure IV. Variations in this procedure will be noted in the examples.
The procedure used in this example involved the PPI application of biocide and safener as described in general Procedure VI above. The "primary" herbicide in this test was MON-12000 (Herbi-cide No. 1) in admixture with other herbicides designated as "co-herbicides", which included LASSO® (co-herbicide B); DUAL® (C); acetochlor (A); EPTAM® (D); butylate (E) and PURSUIT® (K).
The in-furrow treatments with blended COUNTER 15G and antidote mixtures was as described in above examples. MON-12000 and the co-herbicides were formulated in acetone and applied as tank mixtures, incorporated into Dupo silt loam soil with a rotary drum mixer. Subsamples were used to cover seeded and in-furrow treated 10.2 cm pots. Pots were placed on greenhouse benches and subirrigated. Plant responses were observed thirteen days after PPI initiation. Test results (average of two replications) are shown in Table 58, wherein giant foxtail (GIFT) was used in place of shattercane.
This test was conducted in the same manner used in Example 59. All biocide and antidote components were the same and in these tests XRD-498 (Herbicide No. 21) was the prime herbicide. Co-herbicides are shown in Table 59 together with test data.
In one other test conducted as described in the preceding examples in this series of tests, the herbicide PURSUIT® was used as the primary herbicide (in the context of this invention) together with the same insecticide and safeners as above and the co-herbicides shown in Table 60, together with test results.

Giant foxtail (GIFT) = assay: Greenhouse test Procedure VII (same examples); type: in vivo; settings: Antidote + Biocide No. 1 in furrow
From the text: This procedure describes interaction among herbicide, biocide and antidote when the biocide and the antidote is applied to a soil furrow containing crop seed before emergence of the crop and the herbicide is applied after emergence of the crop and weeds. The soil and planting depth was described in Procedure IV. The containers for comparison, the biocide and antidote applications to soil furrows were described in Procedure VI. In this procedure, the seed beds of the first, second, third and fourth containers are covered by soil layers not treated with herbicide. The containers were then placed on a bench in a greenhouse and subirrigated as required for the duration of the test. The herbicide, dispersed or dissolved in water containing 0.25% v/v nonionic surfactant (X-77) was applied by a track sprayer (187 L/ha) to the emerged plants of the second, third and fourth containers about five days after planting. All treatments were run in duplicate. Plant response was observed according to Procedure IV. Variations in this procedure will be noted in the examples.
In these tests (according to Procedure VII) the safeners in solution with acetone were applied in furrow to the soil, followed by COUNTER 15G granules at 227 g/305 m (8 oz./1000'). Applications were made in alternate rows in two separate 13.7 cm x 27.7 cm pans containing Dupo silt loam. Pans were seeded 1.3 cm deep, placed on benches in a greenhouse and subirrigated. BEACON was formulated in water with 0.25% v/v X-77 surfactant and applied by track sprayer at a rate of 187 L/Ha (20 gal/A). Weed species in this test were giant foxtail, shattercane and velvetleaf. The herbicide was applied five (5) days after PPI initiation and observation of test result (shown in Table 47) made eight (8) days later.
In Table 47 COUNTER 15G is abbreviated as "C" and the antidotes as "A" in the column headings which indicate the "C + A" ratios used in the tests. Control and COUNTER treatments are average of four (4) replications and COUNTER + Antidote treatments, average of 2 reps.

SMILES: COC(=O)COC(c1ccccc1)c1ccccc1 [compound 12]
- % Inhibition 5 DAP SHCA (Shattercane (SHCA); Antidote 4.48 + Biocide No. 1 8.96 Kg/Ha PPI, Herb. No. 8 0.07, 5 DAP, before herbicide application): 0%
- % Inhibition 13 DAP SHCA (Shattercane (SHCA); Antidote 4.48 + Biocide No. 1 8.96 Kg/Ha PPI, Herb. No. 8 0.07 POE, 13 DAP): 80%
- % Inhibition SHCA (Shattercane (SHCA); Antidote 4.48 + Biocide No. 1 8.96 Kg/Ha PPI, Herbicide No. 7 0.28 POE, 13 days after planting): 75%
- % Inhibition 13 DAP SHCA (Shattercane (SHCA); Herb. […], 13 DAP, after herbicide application): 85%
- % Inhibition SHCA (Shattercane (SHCA); Table 14: Herbicide No. 7 (ACCENT) 0.84 Kg/Ha POE + Biocide No. 2 8.96 Kg/Ha PPI + antidote 4.48 Kg/Ha PPI, 13 days after planting, 8 days after herbicide): 75%
- % Inhibition SHCA (Shattercane (SHCA); […], 13 days after planting, 8 days after herbicide): 90%
- % Inhibition SHCA (Shattercane (SHCA); […], observed 8 days later (Table 32)): 80%
- % Inhibition SHCA (Shattercane (SHCA); […], observed 8 days later (Table 33)): 40%
- % Inhibition SHCA (Shattercane (SHCA); […], observed 10 days after herbicide application): 60%
- % Inhibition 5 DAP SHCA (Shattercane (SHCA); in vivo): 15%
- % Inhibition 13 DAP SHCA (Shattercane (SHCA); in vivo): 75%
- % Inhibition VELE (Velvetleaf (VELE); Antidote + Biocide No. 1 in furrow, Herbicide No. 6 0.14 Kg/Ha PPI): 65%
- % Inhibition VELE (Velvetleaf (VELE); Antidote + Biocide No. 1 in furrow, Herbicide No. 11 0.0044 Kg/Ha PPI): 70%
- % Inhibition VELE (Velvetleaf (VELE); Antidote + Biocide No. 1 in furrow, Herbicide No. 12 0.0044 Kg/Ha PPI): 60%
- % Inhibition VELE (Velvetleaf (VELE); Antidote + Biocide No. 1 in furrow, Herbicide No. 13 0.0011 Kg/Ha PPI): 15%
- % Inhibition VELE (Velvetleaf (VELE); Antidote + Biocide No. 1 in furrow, Herbicide No. 13 0.0022 Kg/Ha PPI): 60%
- % Inhibition VELE (Velvetleaf (VELE); Antidote + Biocide No. 1 in furrow, Herbicide No. 14 0.07 Kg/Ha PPI): 85%
- % Inhibition VELE (Velvetleaf (VELE); Antidote + Biocide No. 1 in furrow, Herbicide No. 16 0.07 Kg/Ha PPI, 13 days): 60%
- % Inhibition VELE (Velvetleaf (VELE); Antidote + Biocide No. 1 in furrow, Herbicide No. 17 0.14 Kg/Ha PPI, 13 days): 80%
- % Inhibition VELE (Velvetleaf (VELE); Antidote + Biocide No. 1 in furrow, Herbicide No. 18 0.04 Kg/Ha PPI, 13 days): 70%
- % Inhibition VELE (Velvetleaf (VELE); Antidote + Biocide No. 1 in furrow, Herbicide No. 20 1.12 Kg/Ha PPI, 13 days): 95%
- % Inhibition VELE (Velvetleaf (VELE); Antidote + Biocide No. 1 in furrow, Herbicide No. 22 0.28 Kg/Ha PPI, 13 days): 75%
- % Inhibition VELE (Velvetleaf (VELE); Antidote + Biocide No. 1 in furrow, Herbicide No. 24 0.14 Kg/Ha PPI, 13 days): 90%
- % Inhibition VELE (Velvetleaf (VELE); Antidote + Biocide No. 1 in furrow, Herbicide No. 25 0.14 Kg/Ha PPI, 13 days): 70%
- % Inhibition VELE (Velvetleaf (VELE); Antidote + Biocide No. 1 in furrow, Herbicide No. 26 2.24 Kg/Ha PPI, 13 days): 55%
- % Inhibition VELE (Velvetleaf (VELE); Antidote + Biocide No. 1 in furrow, Herbicide No. 28 0.04 Kg/Ha PPI, 13 days): 80%
- % Inhibition VELE (Velvetleaf (VELE); Herbicide No. 12 0.0044 Kg/Ha PPI + Biocide No. 1 in furrow, no antidote): 50%
- % Inhibition VELE (Velvetleaf (VELE); Herbicide No. 12 0.0044 Kg/Ha PPI alone, average of two reps): 50%
- % Inhibition GIFT (Giant foxtail (GIFT); Herbicide No. 1 0.14 Kg/Ha POE, 8 days after POE): 0%
- % Inhibition GIFT (Giant foxtail (GIFT); Herbicide No. 4 0.17 Kg/Ha POE, 8 days after POE): 0%
- % Inhibition GIFT (Giant foxtail (GIFT); Herbicide No. 5 0.07 Kg/Ha POE, 8 days after POE): 0%
- % Inhibition GIFT (Giant foxtail (GIFT); Herbicide No. 6 0.01 Kg/Ha POE): 50%
- % Inhibition GIFT (Giant foxtail (GIFT); Herbicide No. 7 0.56 Kg/Ha POE, 8 days after POE): 85%
- % Inhibition GIFT (Giant foxtail (GIFT); Herbicide No. 9 0.009 Kg/Ha POE): 10%
- % Inhibition GIFT (Giant foxtail (GIFT); Herbicide No. 10 0.002 Kg/Ha POE, 8 days after POE): 0%
- % Inhibition GIFT (Giant foxtail (GIFT); Herbicide No. 15 0.0044 Kg/Ha POE, 8 days after POE): 0%
- % Inhibition GIFT (Giant foxtail (GIFT); Herbicide No. 16 0.01 Kg/Ha POE): 20%
- % Inhibition GIFT (Giant foxtail (GIFT); Herbicide No. 18 0.0044 Kg/Ha POE): 60%
- % Inhibition GIFT (Giant foxtail (GIFT); Herbicide No. 19 0.28 Kg/Ha POE): 35%
- % Inhibition GIFT (Giant foxtail (GIFT); Herbicide No. 21 0.14 Kg/Ha POE): 25%
- % Inhibition GIFT (Giant foxtail (GIFT); Herbicide No. 23 0.0006 Kg/Ha POE): 25%
